# Data published in patent US8575128B2, “Methods for transdifferentiation of body tissues” (priority 1999, dated 2013).
# “And” between values parts separate entries of the source, which are not always exact repeats. Equal values may be shown once. “Also recorded” adds a separate entry of the source. Where no end group is shown, it is not given here.
# Legend:
# [1] = test system: human melanoma cell line G-361; assay: Transdifferentiation of G-361 melanoma cells in culture; format: cell-based; parameters: Phenotypic changes in the cell population: dose or concentration left out as unconfirmed; conditions: 7 days
# Method: A human melanoma cell line. G-361, was purchased from the American Type Culture Collection (ATCC catalog number CRL-1424, Manassas, Va.) in a cryopreserved state. Upon receipt, the tube containing the frozen cells was rapidly thawed in a 371C water bath by swirling the bottom ⅓ of the tube for less than 2 minutes. All subsequent steps were conducted using standard methods of sterile technique. The cells were transferred to a T-25 flask containing 5 ml of pre-warmed McCoy=s 5A modified medium (Life Technologies, Rockville, Md.) and incubated at 371 C in a humidified CO2 incubator. After approximately 24 hours, the original medium was removed and replaced with fresh medium and the cells allowed to grow until they reached approximately 70-80% confluency with the medium being replaced every 2-3 days as needed. At this point, the cells were subcultured into Leighton tubes at low cell densities using well known typsin-EDTA subculturing techniques. After subculturing, the cells were allowed to re-establish their growth for 48 hours prior to administration of drugs.
# Few cells resembled a normal melanocyte phenotype. […] The majority of the cells appeared to be epithelial in morphology. […] The microscopic phenotypic heterogeneity observed was compatible with karyotypic analysis provided by ATCC showing a heterogeneous population with regards to chromosome number.
# Later, beta-carotene in tetrahydrofuran was added to McCoy=s 5A modified medium to a final concentration of about 33 mg/ml with a final concentration of 0.5% THF. This supplemented medium was added to the Leighton tubes after removal of un-supplemented medium and was replaced every 2 days during the 7 clay experimental period. At the end of 7 days, the cultures were fixed in methanol and the cover slips were Giemsa stained.
# Methods: The melanoma cell line G-361, described in Example 1.4 above was used Guanosine was added to McCoy=s 5A modified medium to a final concentration of 3 mg/ml. This supplemented medium was added to the Leighton tubes after removal of unsupplemented medium and was replaced every 2 days during the 7 day experimental period. At the end of 7 days, the cultures were fixed in methanol and the cover slips were Giemsa stained.
# Methods: The melanoma cells line G-361, described in Example 14 above was used Guanosine was added to McCoy=s 5A modified medium to final concentration of 3 mg/ml. This supplemented medium was added to the Leighton tubes after removal of un-supplemented medium and was replaced every 2 days for 7 days. Beta-carotene in THF was added to McCoy=s 5A modified medium at a final concentration of 33 mg/ml with a final concentration of 0.5% THF. […]
# [2] = test system: melanophores and xanthophores; conditions: for Cells containing both melanosomes and pterinosomes (melanophore to xanthophore transdifferentiation), light microscopy: Gomori trichrome stained skin, zinc acetate 7 and 12 days; for Cells containing both melanosomes and pterinosomes (melanophore to xanthophore transdifferentiation), light microscopy / Time on feeding at which the animal died: substance sprinkled on food every other day; for Cells containing both melanosomes and pterinosomes (melanophore to xanthophore transdifferentiation), light microscopy / Colour of the animal by inspection: cGMP 22 days, GMP 67 days; for Identification as transdifferentiation agent by the assay: summary statement; for Direction of chromatophore transdifferentiation from macro observations and photographs of whole animals: fed as in Examples A-C
# Description: Larval Axolotls have an epidermis on a thin basement membrane, under which is a thick collagen layer (green when stained with Gomori trichrome for light microscopy.) Only 3 types of cells are present immediately below and slightly embedded in the collagen layer-(a) fibroblasts, which are generally fusiform and have a characteristic light and ultrastructural appearance, (b) melanophores, which contain numerous round or oval black melanosomes, as well as some premelanosomes, and (c) xanthophores, which, contain organelles known as pterinosomes. These appear as vacuoles in light microscopy and vacuoles with wispy or concentric layered material in electron microscopy. In general, melanosomes are normally found only in melanophores and pterinosomes in xanthophores.
# All Axolotls were 3-5 cm in length at the beginning of the experiment and were obtained from the Indiana University Axolotl Colony, Bloomington, Ind.).
# Temperature was 22 °C with a 12 hour light/12 hour dark
# photoperiod. Water was changed daily before feeding, and when the animals were removed from feeding an hour later. They were fed about every day. Every other day, the experimental substance was sprinkled on the beef or fish pellets. All experimental reagents were obtained from Sigma (St. Louis Mo.). […] For feeding, beef liver was placed on the raised bottom partially in and partially out of the water. This permitted the animal to sense the food in the water but prevented the cGMP sprinkled on the beef from washing away. […] For feeding the animals were transferred to smaller plastic containers (weighing canoes) which have one side sloped. The pellets were placed on the slope, partially in and partially out of the water. This permitted the animal to sense the food in the water but prevented the cGMP sprinkled on the pellet from washing away. Deer Park Spring Water (Breingsville, Pa.) was used exclusively.
# The animals were observed about weekly under an Olympus SZ stereomicroscope and most were photographed prior to sacrifice or shortly (hours) after death. Animals were fixed in 10% Formalin and 4 mm punch biopsies of skin were processed routinely for histology (Gomori Trichrome) by Charles River Laboratories (Wilmington, Mass.). Slides were examined in an Olympus (Woodbury, N.Y.) BX40 microscope.
# Three animals (a control and two GMP fed animals) were biopsied with a 2 mm punch and fixed in Trump=s fixative for 24 hours, and processed routinely for electron microscopy. They were postfixed in 2% osmium tetroxide, dehydrated in a serials of alcohols and embedded in Epon-Araldite (1:1). Processing and photography were performed at the Electron Imaging Facility, Rutger=s University, Piscataway, N.J.
# chromatophores = conditions: literature reports (Frost; Thibaudeau and Holder; Bagnara); cited from earlier work
# melanocytes = conditions: Dupin et al. 2000; cited from earlier work
Compound,"Cells containing both melanosomes and pterinosomes (melanophore to xanthophore transdifferentiation), light microscopy [2]",Identification as transdifferentiation agent by the assay [2],Direction of chromatophore transdifferentiation from macro observations and photographs of whole animals [2],also measured
"CC1=C(/C=C/C(C)=C/C=C/C(C)=C/C=C/C=C(C)/C=C/C=C(C)/C=C/C2=C(C)CCCC2(C)C)C(C)(C)CCC1 [Beta-carotene, beta-carotene]",,,,"Cell death compared with control cultures ([1]; about 33 mg/ml in 0.5% THF): a large segment of the starting population died; Mitotic figures in remaining cell population ([1]; about 33 mg/ml in 0.5% THF): no mitotic figures observed; Morphology of remaining cells ([1]; about 33 mg/ml in 0.5% THF, Giemsa stain): most had triangular morphology and a large nucleus, consistent with neural cells, or were fusiform in shape, consistent with neuroglial or neurilemmal (Schwann) cells"
"Nc1nc2c(ncn2[C@@H]2O[C@H](COP(=O)(O)O)[C@@H](O)[C@H]2O)c(=O)[nH]1 [GMP, guanosine 5′-monophosphate]",clear evidence of transdifferentiation by the presence of cells containing both pterinosomes and melanosomes; also recorded: transdifferentiating from a melanocyte into a xanthophore,transdifferentiation agents,,"Colour of the animal by inspection [2]: markedly lighter by inspection and had a yellow hue; Cells and organelles in skin, electron microscopy ([2]; fed 67 days): many cells in which both melanosomes and pterinosomes were, present; also recorded: organelles which appeared to be hybrids of melanosomes and pterinosomes"
"CC(=O)[O-].CC(=O)[O-].[Zn+2] [Zinc Acetate, reference compound]",cells with both melanosomes and pterinosomes,transdifferentiation agents,,Time on feeding at which the animal died [2]: 7 days and 12 days
"Nc1nc2c(ncn2[C@@H]2O[C@@H]3COP(=O)(O)O[C@H]3[C@H]2O)c(=O)[nH]1 [cGMP, guanosine 3′,5′-cyclic monophosphate]",presence of melanosomes and pterinosomes in several cells,transdifferentiation agents,,Colour of the animal by inspection [2]: lighter by inspection; Time on feeding at which the animal died [2]: 22 days
Nc1cc[nH]c(=O)n1 [cytosine],,,transdifferentiates xanthophores to melanophores,
Nc1nc2c(ncn2[C@@H]2O[C@H](CO)[C@@H](O)[C@H]2O)c(=O)[nH]1 [guanosine],,,transdifferentiate melanophores to xanthophores,Phenotypic changes in the cell population ([1]; Giemsa stain): many cells with an increased nuclear to cytoplasmic ratio; also recorded: increased number of triangular cells consistent with neural phenotypes; Transdifferentiation of Axolotl chromatophores (chromatophores): acted as a transdifferentiation agent; also recorded: transdifferentiate from one pigmented cell type to another
O[C@H]1[C@H](O)[C@@H](O)[C@H](O)[C@@H](O)[C@H]1O [myo-inositol],,transdifferentiation agents,transdifferentiate melanophores to xanthophores,
"Cl.Cl.Cl.Cl.NCCNCCNCCN [trien, triethylenetetramine tetrahydrochloride]",,,transdifferentiate melanophores to xanthophores,
"Endothelian 3: Factor reported by Dupin et al. to induce conversion of melanocytes into glial cells (CTCFTYKDKECVYYCHLDIIW; ends and bridges not checked; cysteine pairing not given here; UniProt P14138 97-117, looked up)",,,,Conversion of melanocytes into glial cells (melanocytes): induce the conversion of melanocytes into glial cells
